Test results as given in patent US12404285B2, “KRAS G12D proteolysis targeting chimeras” (PAQ Therapeutics Inc., priority 2022, dated 2025).

Target: T1, KRAS in AGS cells (KRAS G12D mutant cell line) or LS180 cells (KRAS G12D mutant cell line) (Homo sapiens, UniProt P01116, G12D)
T1 construct: CRL-187 (LS180) (so in the source); host or cells: AGS or LS180 cells
Assay: KRAS Western Blot (WB) assay
Type: cell-based
Conditions: KRAS degradation, 24 hours incubation, normalized to β-actin
Description: Day 1. Seeded AGS cells (KRAS G12D mutant cell line, ATCC, CRL-1739) or LS180 cells (KRAS G12D mutant cell line, ATCC, CRL-187) into 6-well plates (cell density: 3×10^5 cells/well/2 ml medium) in Ham's F-12 medium (Invitrogen, 11765-054) or Eagle's Minimum Essential Medium (ATCC, 30-2003) and incubated overnight at 37° C. and 5% CO2.
Day 2. Aspirated 1 ml medium from each well and added 1 ml medium containing DMSO or test compound into the well to achieve the desired final concentration. Mixed well by gentle shaking and incubated for 24 hours.
Day 3. Aspirated media from plates; washed cells with 2 ml 4° C. PBS (Solarbio, P1020-500) and aspirated the PBS. Then added 100 μl 4° C. […] lysis buffer (Boston BioProducts BP-115D) with protease and phosphatase inhibitors at vendor recommended concentrations (Roche 05892791001 and 04906837001) into each well to lyse the cells, and incubated for 20 minutes at 4° C. Cell lysate was collected into 1.5 ml Eppendorf tube, and the lysate was sonicated at 4° C. for 2 minutes (5 second pulse at 30% power with 10 second intermissions). The lysate was centrifuged at 12,000 rpm for 15 minutes at 4° C. The supernatant was transferred to a fresh Eppendorf tube, and protein concentration was quantified using a BCA kit (Solarbio, PC0020-500). Mixed the cell lysate and 5×NuPAGE SDS Loading Buffer (Beyotime, P0015L), and heated at 95° C. for 10 minutes in a heat block. Prepared samples were stored at −80° C. until SDS-PAGE procedure.
Day 4. Loaded 15 μg protein from each sample onto NuPAGE® Novex 4-12% Bis-Tris Midi Gel, 26 W (Invitrogen, WG1403BOX) and ran the gel at 120V for 1.5 hours in 1×NuPAGE® MOPS SDS Running Buffer (Novex, NP0001). Electrotransferred to nitrocellulose membrane using dry transfer method (iBlot 2 Transfer Stacks, nitrocellulose, IB23001) with a program consisting of 20V for 1 minute, 23V for 4 minutes and 25V for 2 minutes. Blocked the membrane with 5% BSA (Solarbio, A8020) in 1×TBST (CST, 9997S) for 1 hour at room temperature. Incubated with KRAS antibody (LSBio, LS-C175665, clone 2C1) at 1:1000 dilution and β-actin antibody at 1:1000 dilution (CST, 4970S) in TBST containing 1% BSA (Solarbio, A8020) at 4° C. overnight.
Day 5. Washed nitrocellulose membrane three times with 1×TBST for 10 minutes each at room temperature. Incubated with fluorescently labeled secondary antibodies at 1:5000 dilution in TBST containing 1% BSA (anti-rabbit IgG, Licor, 926-32211; anti-mouse IgG, LI-COR, 926-68070) for 1 hour at room temperature. Washed membrane three times with TBST, 10 minutes each. Scanned the membrane on LiCOR scanner for fluorescent signal(s) and quantified KRAS bands and β-actin bands for normalization.
The data are reported in Table 2, wherein “A” indicates a DC50 of less than 1 μM; “B” indicates a DC50 of greater than or equal to 1 μM and less than 10 μM; and “C” indicates a DC50 of greater than or equal to 10 μM.

T1 sequence (P01116 1-188 isoform P01116-2 G12D): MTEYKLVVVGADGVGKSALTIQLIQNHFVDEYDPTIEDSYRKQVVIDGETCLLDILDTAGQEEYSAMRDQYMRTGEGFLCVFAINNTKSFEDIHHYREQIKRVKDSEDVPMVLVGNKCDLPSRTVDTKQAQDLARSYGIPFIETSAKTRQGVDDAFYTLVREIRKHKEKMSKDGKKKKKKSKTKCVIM

Compound: C#Cc1c(F)ccc2cc(O)cc(-c3ncc4c(N5C[C@H]6CC[C@@H](C5)N6)nc(OC[C@@]56CCCN5[C@H](COC(=O)NCCCCc5ccc7c(c5)n(C)c(=O)n7C5CCC(=O)NC5=O)CC6)nc4c3F)c12 (stereo partly drawn) [Compound 006, ((3S,7aS)-7a-(((4-((1R,5S)-3,8-diazabicyclo[3.2.1]octan-3-yl)-7-(8-ethynyl-7-fluoro-3-hydroxynaphthalen-1-yl)-8-fluoropyrido[4,3-d]pyrimidin-2-yl)oxy)methyl)hexahydro-1H-pyrrolizin-3-yl)methyl (4-(1-(2,6-dioxopiperidin-3-yl)-3-methyl-2-oxo-2,3-dihydro-1H-benzo[d]imidazol-5-yl)butyl)carbamate]
- DC50: C (DC50 greater than or equal to 10 μM)

Compound: C#Cc1c(F)ccc2cc(O)cc(-c3ncc4c(N5CC6CCC(C5)N6)nc(OC[C@@]56CCCN5[C@H](COC(=O)NCCCCCc5cccc7c5n(C)c(=O)n7C5CCC(=O)NC5=O)CC6)nc4c3F)c12 (stereo partly drawn) [Compound 007, [(3S,8S)-8-[[4-(3,8-diazabicyclo[3.2.1]octan-3-yl)-7-(8-ethynyl-7-fluoro-3-hydroxy-1-naphthyl)-8-fluoro-pyrido[4,3-d]pyrimidin-2-yl]oxymethyl]-1,2,3,5,6,7-hexahydropyrrolizin-3-yl]methyl N-[5-[1-(2,6-dioxo-3-piperidyl)-3-methyl-2-oxo-benzimidazol-4-yl]pentyl]carbamate]
- DC50: C (DC50 greater than or equal to 10 μM)

Compound: C#Cc1c(F)ccc2cc(O)cc(-c3ncc4c(N5C[C@H]6CC[C@@H](C5)N6)nc(OC[C@@]56CCCN5[C@H](COC(=O)NCCCCc5cccc7c5n(C)c(=O)n7C5CCC(=O)NC5=O)CC6)nc4c3F)c12 (stereo partly drawn) [Compound 008, ((3S,7aS)-7a-(((4-((1R,5S)-3,8-diazabicyclo[3.2.1]octan-3-yl)-7-(8-ethynyl-7-fluoro-3-hydroxynaphthalen-1-yl)-8-fluoropyrido[4,3-d]pyrimidin-2-yl)oxy)methyl)hexahydro-1H-pyrrolizin-3-yl)methyl (4-(1-(2,6-dioxopiperidin-3-yl)-3-methyl-2-oxo-2,3-dihydro-1H-benzo[d]imidazol-4-yl)butyl)carbamate]
- DC50: B (DC50 greater than or equal to 1 μM and less than 10 μM)

Compound: C#Cc1c(F)ccc2cc(O)cc(-c3ncc4c(N5CC6CCC(C5)N6)nc(OC[C@@]56CCCN5[C@H](COC(=O)NCCCCCCCCCCCc5ccc7c(c5)n(C)c(=O)n7C5CCC(=O)NC5=O)CC6)nc4c3F)c12 (stereo partly drawn) [Compound 009, [(3S,8S)-8-[[4-(3,8-diazabicyclo[3.2.1]octan-3-yl)-7-(8-ethynyl-7-fluoro-3-hydroxy-1-naphthyl)-8-fluoro-pyrido[4,3-d]pyrimidin-2-yl]oxymethyl]-1,2,3,5,6,7-hexahydropyrrolizin-3-yl]methyl N-[11-[1-(2,6-dioxo-3-piperidyl)-3-methyl-2-oxo-benzimidazol-5-yl]undecyl]carbamate]
- DC50: A (DC50 less than 1 μM)

Compound: C#Cc1c(F)ccc2cc(O)cc(-c3ncc4c(N5CC6CCC(C5)N6)nc(OC[C@@]56CCCN5[C@H](COC(=O)NCCCCCCCCCc5ccc7c(c5)n(C)c(=O)n7C5CCC(=O)NC5=O)CC6)nc4c3F)c12 (stereo partly drawn) [Compound 010, [(3S,8S)-8-[[4-(3,8-diazabicyclo[3.2.1]octan-3-yl)-7-(8-ethynyl-7-fluoro-3-hydroxy-1-naphthyl)-8-fluoro-pyrido[4,3-d]pyrimidin-2-yl]oxymethyl]-1,2,3,5,6,7-hexahydropyrrolizin-3-yl]methyl N-[9-[1-(2,6-dioxo-3-piperidyl)-3-methyl-2-oxo-benzimidazol-5-yl]nonyl]carbamate]
- DC50: A (DC50 less than 1 μM)
